Assay results as given in patent publication US5753617A, “Peptide inhibitors of cellular adhesion” (Centocor, Inc., priority 1995, dated 1998).
Like-named read-outs stand apart in the source and are kept apart here. Values belong to the molecule of their own block, whether it stands above or below them. Where a SMILES comes first, the peptide text is derived from it. Bridges are numbered along the chain shown (N, C = ends). [ ]: non-standard residue; d: D form. Ava = NCCCCC(=O)O

How the values were obtained:
[1] = disulfide bond, water
P-selectin = biological target: T1, P-selectin (Homo sapiens, UniProt P16109); test: Inhibition of human neutrophil adhesion to purified P-selectin immobilized on plastic wells; type: cell-based; details: inhibiting the binding of human neutrophils to P-selectin
T1 construct: P-selectin is isolated from human platelet lysates; from tissue; host or cells: human platelets (outdated platelet packs from a blood bank)
T1 sequence (P16109 42-830): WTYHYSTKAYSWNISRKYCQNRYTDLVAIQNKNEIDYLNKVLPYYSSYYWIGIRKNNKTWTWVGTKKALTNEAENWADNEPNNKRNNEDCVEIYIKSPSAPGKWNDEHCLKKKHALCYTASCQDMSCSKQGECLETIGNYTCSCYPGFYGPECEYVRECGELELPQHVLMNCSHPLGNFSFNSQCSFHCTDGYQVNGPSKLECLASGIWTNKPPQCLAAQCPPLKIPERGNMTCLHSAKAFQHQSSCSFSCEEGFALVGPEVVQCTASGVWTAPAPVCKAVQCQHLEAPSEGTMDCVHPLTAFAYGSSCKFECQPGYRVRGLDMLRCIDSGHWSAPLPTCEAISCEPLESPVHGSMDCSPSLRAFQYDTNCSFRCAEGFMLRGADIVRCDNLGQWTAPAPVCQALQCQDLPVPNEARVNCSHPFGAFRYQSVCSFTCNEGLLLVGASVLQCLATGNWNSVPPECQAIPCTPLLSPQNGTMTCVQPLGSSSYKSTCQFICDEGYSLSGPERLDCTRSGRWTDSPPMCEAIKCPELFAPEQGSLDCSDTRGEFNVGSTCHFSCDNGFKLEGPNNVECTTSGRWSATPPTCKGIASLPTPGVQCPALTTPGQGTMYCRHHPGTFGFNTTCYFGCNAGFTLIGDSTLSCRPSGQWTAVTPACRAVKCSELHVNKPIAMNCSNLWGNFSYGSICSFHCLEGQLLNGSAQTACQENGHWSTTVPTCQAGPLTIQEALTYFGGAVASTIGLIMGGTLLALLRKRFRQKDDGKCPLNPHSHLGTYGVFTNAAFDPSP
Outline: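 Isolated human neutrophils (2×10^5 per well) in HBSS with Ca2+/Mg2+ and HSA added to wells coated overnight at 4° C with platelet-derived P-selectin (5 micrograms/mL), HSA-blocked; 20 min at 22° C. Nonadherent cells removed by inverted centrifugation at 150 g; adherent cells quantified by myeloperoxidase activity.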

[2] = system: neutrophil influx in thioglycolate-induced peritonitis; test: Inhibition of neutrophil influx in a rat model of thioglycolate-induced peritonitis; type: in vivo; details: rat thioglycolate-induced peritonitis; FIG. III
Procedure: CD-1 rats (175-200 g) were injected i.p. with 10 ml thioglycollate medium (BBL #21195/21196 lot#H1KBGP). At -5 minutes, 1.5 hours, and 3.5 hours post thioglycollate injection 5 rats were injected with D-arginyl-D-lysyl-cyclo(D-cysteinyl-glycyl-phenylalanyl-D-cysteinyl)-D-tryptophyl-D-threonyl-D-tryptophyl-D-valineamide (Preferred peptide (19)) (0.75 mls at -5, 0.25 mls at 1.5 and 0.25 mls at 3.5). 5 rats were injected with vehicle at the same time points (0.75 mls at -5, 0.50 mls at 1.5, and 0.25 mls at 3.5). 5 rats received thiogycollate only and served as controls. At 4 hours post thioglycollate injection all animals were sacrificed by CO2 asphyxiation. Neutrophils were harvested by flushing the peritoneal cavity with 50 mls of Hanks balanced salt solution w/o Ca and Mg (JHR Biosciences 55-02178P Lot# IL3697) containing 0.3% ultrapure EDTA (JT Baker 4040-01 lot# D42704). White cells were then counted using the Danam Vet 8 cell counter.

IC50 (P-selectin): 85.9 µM
Structure (SMILES): CC(C)[C@@H](NC(=O)[C@@H](Cc1c[nH]c2ccccc12)NC(=O)[C@H](NC(=O)[C@@H](Cc1c[nH]c2ccccc12)NC(=O)[C@H]1CSSC[C@@H](NC(=O)[C@@H](CCCCN)NC(=O)[C@H](N)CCCNC(=N)N)C(=O)N[C@@H](CCCCN)C(=O)N[C@@H](Cc2ccccc2)C(=O)N1)[C@H](C)O)C(N)=O [(70)] (H-[dR][dK][dC]KF[dC][dW][dT][dW][dV]-NH2; disulfide 3-6)
ring closure, yield of all isomers ([1]; from CC(C)[C@@H](NC(=O)[C@@H](Cc1c[nH]c2ccccc12)NC(=O)[C@H](NC(=O)[C@@H](Cc1c[nH]c2ccccc12)NC(=O)[C@@H](CS)NC(=O)[C@H](Cc1ccccc1)NC(=O)[C@H](CCCCN)NC(=O)[C@@H](CS)NC(=O)[C@@H](CCCCN)NC(=O)[C@H](N)CCCNC(=N)N)[C@H](C)O)C(N)=O, DMSO, 0.708 mM, 48.0 h): 8.8%

IC50 (P-selectin): 9.9 µM
Structure (SMILES): CC(C)[C@@H](NC(=O)[C@@H](CCCNC(=N)N)NC(=O)[C@H](NC(=O)[C@@H](Cc1c[nH]c2ccccc12)NC(=O)[C@H]1CSSC[C@@H](NC(=O)[C@@H](CCCCN)NC(=O)[C@H](N)CCCNC(=N)N)C(=O)NCC(=O)N[C@@H](Cc2ccccc2)C(=O)N1)[C@H](C)O)C(N)=O [(90)] (H-[dR][dK][dC]GF[dC][dW][dT][dR][dV]-NH2; disulfide 3-6)
ring closure, yield of all isomers ([1]; from CC(C)[C@@H](NC(=O)[C@@H](CCCNC(=N)N)NC(=O)[C@H](NC(=O)[C@@H](Cc1c[nH]c2ccccc12)NC(=O)[C@@H](CS)NC(=O)[C@H](Cc1ccccc1)NC(=O)CNC(=O)[C@@H](CS)NC(=O)[C@@H](CCCCN)NC(=O)[C@H](N)CCCNC(=N)N)[C@H](C)O)C(N)=O, DMSO, 0.747 mM, 16.0 h): 18.5%

IC50 (P-selectin): 23 µM
Structure (SMILES): CC(C)[C@@H](NC(=O)[C@@H](Cc1c[nH]c2ccccc12)NC(=O)[C@H](NC(=O)[C@@H](Cc1c[nH]c2ccccc12)NC(=O)[C@H]1CSSC[C@@H](NC(=O)[C@@H](CCCCN)NC(=O)[C@H](N)CCCNC(=N)N)C(=O)NCCCCC(=O)N1)[C@H](C)O)C(N)=O [(21)] (H-[dR][dK][dC][Ava][dC][dW][dT][dW][dV]-NH2; disulfide 3-5)
ring closure, yield of all isomers ([1]; from CC(C)[C@@H](NC(=O)[C@@H](Cc1c[nH]c2ccccc12)NC(=O)[C@H](NC(=O)[C@@H](Cc1c[nH]c2ccccc12)NC(=O)[C@@H](CS)NC(=O)CCCCNC(=O)[C@@H](CS)NC(=O)[C@@H](CCCCN)NC(=O)[C@H](N)CCCNC(=N)N)[C@H](C)O)C(N)=O, DMSO, 0.241 mM, 16.0 h): 13.2%

IC50 (P-selectin): 17 µM
Structure (SMILES): CC(C)[C@@H](NC(=O)[C@@H](Cc1c[nH]c2ccccc12)NC(=O)[C@H](NC(=O)[C@@H](Cc1c[nH]c2ccccc12)NC(=O)[C@H]1CSSC[C@@H](NC(=O)[C@@H](CCCCN)NC(=O)[C@H](N)CCCNC(=N)N)C(=O)NCC(=O)NCC(=O)N1)[C@H](C)O)C(N)=O [(25)] (H-[dR][dK][dC]GG[dC][dW][dT][dW][dV]-NH2; disulfide 3-6)
ring closure, yield of all isomers ([1]; from CC(C)[C@@H](NC(=O)[C@@H](Cc1cn(C=O)c2ccccc12)NC(=O)[C@H](NC(=O)[C@@H](Cc1cn(C=O)c2ccccc12)NC(=O)[C@@H](CS)NC(=O)CNC(=O)CNC(=O)[C@@H](CS)NC(=O)[C@@H](CCCCN)NC(=O)[C@H](N)CCCNC(=N)N)[C@H](C)O)C(N)=O, DMSO, 1.4 mM, 16.0 h, 2 steps): 2.4%

IC50 (P-selectin): 205 µM
Structure (SMILES): CC(C)[C@@H](NC(=O)[C@@H](Cc1c[nH]c2ccccc12)NC(=O)[C@H](NC(=O)[C@@H](Cc1c[nH]c2ccccc12)NC(=O)[C@H]1CSSC[C@@H](NC(=O)[C@@H](CCCCN)NC(=O)[C@H](N)CCCNC(=N)N)C(=O)N[C@@H](C)C(=O)N[C@@H](Cc2ccccc2)C(=O)N1)[C@H](C)O)C(N)=O [(37)] (H-[dR][dK][dC]AF[dC][dW][dT][dW][dV]-NH2; disulfide 3-6)
ring closure, yield of all isomers ([1]; from CC(C)[C@@H](NC(=O)[C@@H](Cc1c[nH]c2ccccc12)NC(=O)[C@H](NC(=O)[C@@H](Cc1c[nH]c2ccccc12)NC(=O)[C@@H](CS)NC(=O)[C@H](Cc1ccccc1)NC(=O)[C@H](C)NC(=O)[C@@H](CS)NC(=O)[C@@H](CCCCN)NC(=O)[C@H](N)CCCNC(=N)N)[C@H](C)O)C(N)=O, air/Cu wire, ammonium acetate, 0.731 mM, 22.0 h): 1.3%

IC50 (P-selectin): 48 µM
Structure (SMILES): CC(C)[C@@H](NC(=O)[C@@H](Cc1c[nH]c2ccccc12)NC(=O)[C@H](NC(=O)[C@@H](Cc1c[nH]c2ccccc12)NC(=O)[C@H]1CSSC[C@@H](NC(=O)[C@@H](CCCCN)NC(=O)[C@H](N)CCCNC(=N)N)C(=O)N[C@H](Cc2ccccc2)C(=O)NCC(=O)N1)[C@H](C)O)C(N)=O [(12)] (H-[dR][dK][dC][dF]G[dC][dW][dT][dW][dV]-NH2; disulfide 3-6)
ring closure, yield of all isomers ([1]; from CC(C)[C@@H](NC(=O)[C@@H](Cc1c[nH]c2ccccc12)NC(=O)[C@H](NC(=O)[C@@H](Cc1c[nH]c2ccccc12)NC(=O)[C@@H](CS)NC(=O)CNC(=O)[C@@H](Cc1ccccc1)NC(=O)[C@@H](CS)NC(=O)[C@@H](CCCCN)NC(=O)[C@H](N)CCCNC(=N)N)[C@H](C)O)C(N)=O, DMSO, 0.255 mM, 16.0 h): 18.7%

IC50 (P-selectin): 41 µM
Structure (SMILES): CC[C@@H](C)[C@H]1NC(=O)[C@H](NC(=O)[C@H](N)CCCNC(=N)N)CSSC[C@H](C(=O)N[C@@H](C(=O)N[C@H](Cc2c[nH]c3ccccc23)C(=O)N[C@@H](C(=O)N[C@H](Cc2c[nH]c3ccccc23)C(=O)N[C@@H](C(N)=O)C(C)C)[C@H](C)O)[C@H](C)CC)NC(=O)CNC1=O [(4)] (H-[dR][dC][dI]G[dC][dI][dW][dT][dW][dV]-NH2; disulfide 2-5)
ring closure, yield of all isomers ([1]; from CC[C@@H](C)[C@@H](NC(=O)[C@@H](CS)NC(=O)[C@H](N)CCCNC(=N)N)C(=O)NCC(=O)N[C@H](CS)C(=O)N[C@@H](C(=O)N[C@H](Cc1c[nH]c2ccccc12)C(=O)N[C@@H](C(=O)N[C@H](Cc1c[nH]c2ccccc12)C(=O)N[C@@H](C(N)=O)C(C)C)[C@H](C)O)[C@H](C)CC, DMSO, 0.405 mM, 16.0 h): 43.1%

Structure (SMILES): CC(C)[C@@H](NC(=O)[C@@H](Cc1c[nH]c2ccccc12)NC(=O)[C@H](NC(=O)[C@@H](Cc1c[nH]c2ccccc12)NC(=O)[C@H]1CSSC[C@@H](NC(=O)[C@@H](CCCCN)NC(=O)[C@H](N)CCCNC(=N)N)C(=O)NCC(=O)N[C@@H](Cc2ccccc2)C(=O)N1)[C@H](C)O)C(N)=O [Preferred peptide (19), D-Arginyl-D-lysyl-cyclo(D-cysteinyl-glycyl-phenylalanyl-D-cysteinyl-)-D-tryptophyl-D-threonyl-D-tryptophyl-D-valine-amide] (H-[dR][dK][dC]GF[dC][dW][dT][dW][dV]-NH2; disulfide 3-6)
inhibition of neutrophil influx (result in words) [2]: inhibition of neutrophil influx

IC50 (P-selectin): 2.4 µM
Structure (SMILES): CC[C@@H](C)[C@H]1NC(=O)[C@H](NC(=O)[C@@H](CCCCN)NC(=O)[C@H](N)CCCNC(=N)N)CSSC[C@H](C(=O)N[C@H](Cc2c[nH]c3ccccc23)C(=O)N[C@@H](C(=O)N[C@H](Cc2c[nH]c3ccccc23)C(=O)N[C@@H](C(N)=O)C(C)C)[C@H](C)O)NC(=O)[C@H]([C@@H](C)CC)NC1=O [(92)] (H-[dR][dK][dC][dI]I[dC][dW][dT][dW][dV]-NH2; disulfide 3-6)
ring closure, yield of all isomers ([1]; from CC[C@@H](C)[C@@H](NC(=O)[C@@H](CS)NC(=O)[C@@H](CCCCN)NC(=O)[C@H](N)CCCNC(=N)N)C(=O)N[C@H](C(=O)N[C@H](CS)C(=O)N[C@H](Cc1c[nH]c2ccccc12)C(=O)N[C@@H](C(=O)N[C@H](Cc1c[nH]c2ccccc12)C(=O)N[C@@H](C(N)=O)C(C)C)[C@H](C)O)[C@@H](C)CC, DMSO, 0.0765 mM, 24.0 h): 17.5%

IC50 (P-selectin): 22 µM
Structure (SMILES): CC(C)[C@H](NC(=O)[C@H](Cc1c[nH]c2ccccc12)NC(=O)[C@@H](NC(=O)[C@H](Cc1c[nH]c2ccccc12)NC(=O)[C@@H]1CSSC[C@H](NC(=O)[C@@H](N)CCCCN)C(=O)NCC(=O)NCC(=O)N1)[C@@H](C)O)C(N)=O [(27)] (H-KCGGCWTWV-NH2; disulfide 2-5)
ring closure, yield of all isomers ([1]; from CC(C)[C@H](NC(=O)[C@H](Cc1c[nH]c2ccccc12)NC(=O)[C@@H](NC(=O)[C@H](Cc1c[nH]c2ccccc12)NC(=O)[C@H](CS)NC(=O)CNC(=O)CNC(=O)[C@H](CS)NC(=O)[C@@H](N)CCCCN)[C@@H](C)O)C(N)=O, K3Fe(CN)6/NH4OH (half) and DMSO (half), 0.37 mM, 16.0 h): 10.9%
